From ChEMBL document CHEMBL4184249, “Structural development of tetrachlorophthalimides as liver X receptor β (LXRβ)-selective agonists with improved aqueous solubility” (Bioorg Med Chem Lett, 2018)
In brackets after ≈: the same amount, converted by molar mass. Activity calls are given as the source filed them. No cut-off for these calls is given here.

How the values were obtained:
[1] = target: T1, Oxysterols receptor LXR-beta (Mus musculus) (UniProt Q60644); test: Agonist activity at mouse LXRbeta expressed in HEK293 cells co-expressing CMX-beta-galactosidase incubated for 16 hrs by luciferase reporter gene assay relative to T0901317; format: cell-based
T1 sequence (whole entry): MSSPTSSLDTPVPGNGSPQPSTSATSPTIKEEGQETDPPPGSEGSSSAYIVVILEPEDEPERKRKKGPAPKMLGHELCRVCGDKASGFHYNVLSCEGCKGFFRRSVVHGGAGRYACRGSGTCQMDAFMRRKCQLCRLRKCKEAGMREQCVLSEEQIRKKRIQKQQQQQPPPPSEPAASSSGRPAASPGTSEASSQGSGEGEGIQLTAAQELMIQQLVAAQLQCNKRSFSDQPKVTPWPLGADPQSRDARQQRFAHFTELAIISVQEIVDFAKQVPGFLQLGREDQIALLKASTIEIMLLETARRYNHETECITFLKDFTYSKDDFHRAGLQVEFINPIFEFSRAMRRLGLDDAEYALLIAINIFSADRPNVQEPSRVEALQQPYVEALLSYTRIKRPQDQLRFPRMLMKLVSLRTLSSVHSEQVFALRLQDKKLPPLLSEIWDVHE

[2] = target: T2, Peroxisome proliferator-activated receptor gamma (Homo sapiens) (UniProt P37231); test: Agonist activity at GAL4-tagged PPARgamma (unknown origin) expressed in HEK293 cells co-expressing CMX-beta-galactosidase at 0.3 to 30 uM incubated for 16 hrs by luciferase reporter gene assay; format: cell-based
T2 sequence (whole entry): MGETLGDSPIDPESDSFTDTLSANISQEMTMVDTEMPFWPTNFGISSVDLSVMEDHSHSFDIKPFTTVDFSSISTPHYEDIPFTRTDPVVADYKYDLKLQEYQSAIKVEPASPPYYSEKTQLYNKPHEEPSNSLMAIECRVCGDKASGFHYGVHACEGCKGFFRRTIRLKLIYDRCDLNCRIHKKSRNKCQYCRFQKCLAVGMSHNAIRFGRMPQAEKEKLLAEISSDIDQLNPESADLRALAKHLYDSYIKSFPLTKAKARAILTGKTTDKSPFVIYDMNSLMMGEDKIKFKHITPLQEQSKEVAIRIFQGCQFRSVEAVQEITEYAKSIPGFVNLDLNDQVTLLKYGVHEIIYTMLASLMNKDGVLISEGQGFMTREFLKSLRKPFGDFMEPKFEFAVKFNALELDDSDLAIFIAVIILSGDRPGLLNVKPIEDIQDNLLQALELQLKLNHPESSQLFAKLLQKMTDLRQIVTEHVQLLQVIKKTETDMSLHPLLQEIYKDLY

[3] = target: T3, Retinoic acid receptor RXR-beta (Homo sapiens) (UniProt P28702); test: Agonist activity at GAL4-tagged RXRbeta (unknown origin) expressed in HEK293 cells co-expressing CMX-beta-galactosidase at 0.3 to 30 uM incubated for 16 hrs by luciferase reporter gene assay; format: cell-based
T3 sequence (whole entry): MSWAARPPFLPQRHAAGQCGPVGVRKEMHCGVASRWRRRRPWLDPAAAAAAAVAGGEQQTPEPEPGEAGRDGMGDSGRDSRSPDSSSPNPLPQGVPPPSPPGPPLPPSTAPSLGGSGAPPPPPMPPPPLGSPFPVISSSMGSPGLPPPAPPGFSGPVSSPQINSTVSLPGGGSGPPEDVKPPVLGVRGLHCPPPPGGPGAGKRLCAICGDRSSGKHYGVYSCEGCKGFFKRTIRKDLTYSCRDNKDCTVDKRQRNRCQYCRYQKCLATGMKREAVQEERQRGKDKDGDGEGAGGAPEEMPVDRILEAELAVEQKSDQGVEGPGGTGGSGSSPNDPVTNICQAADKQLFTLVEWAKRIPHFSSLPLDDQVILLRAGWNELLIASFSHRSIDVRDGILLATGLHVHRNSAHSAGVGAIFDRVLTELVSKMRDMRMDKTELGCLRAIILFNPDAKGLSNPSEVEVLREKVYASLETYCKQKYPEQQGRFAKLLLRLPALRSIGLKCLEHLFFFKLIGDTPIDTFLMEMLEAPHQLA

[4] = target: T4, Retinoic acid receptor RXR-gamma (Homo sapiens) (UniProt P48443); test: Agonist activity at GAL4-tagged RXRgamma (unknown origin) expressed in HEK293 cells co-expressing CMX-beta-galactosidase at 0.3 to 30 uM incubated for 16 hrs by luciferase reporter gene assay; format: cell-based
T4 sequence (whole entry): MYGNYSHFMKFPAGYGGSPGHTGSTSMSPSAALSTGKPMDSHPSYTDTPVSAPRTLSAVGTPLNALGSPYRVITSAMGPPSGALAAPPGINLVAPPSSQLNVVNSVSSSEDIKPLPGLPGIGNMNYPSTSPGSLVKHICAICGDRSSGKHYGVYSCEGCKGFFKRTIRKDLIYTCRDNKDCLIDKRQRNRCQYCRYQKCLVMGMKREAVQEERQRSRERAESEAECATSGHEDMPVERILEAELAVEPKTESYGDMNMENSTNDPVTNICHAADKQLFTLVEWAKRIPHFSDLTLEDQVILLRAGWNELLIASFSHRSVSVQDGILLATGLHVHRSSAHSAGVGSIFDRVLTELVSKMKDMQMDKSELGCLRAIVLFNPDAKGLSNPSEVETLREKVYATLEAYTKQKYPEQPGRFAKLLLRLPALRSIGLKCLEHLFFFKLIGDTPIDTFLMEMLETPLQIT

[5] = target: T5, Oxysterols receptor LXR-beta (Homo sapiens, UniProt P55055); test: Agonist activity at LXRbeta ligand-binding domain (unknown origin) incubated for 1.5 hrs using fluorescein-labeled coactivator peptide by TR-FRET competitive binding assay
[6] = Aqueous solubility of the compound in EtOH: 1/15 M phosphate buffer at pH 7.4 1:1 by HPLC method; format: physicochemical
[7] = target: T5, Oxysterols receptor LXR-beta; test: Agonist activity at LXRbeta ligand-binding domain (unknown origin) at 3 uM incubated for 1.5 hrs using fluorescein-labeled coactivator peptide by TR-FRET competitive binding assay relative to T0901317

T5 sequence (P55055 whole entry, looked up, the tested form may be a part): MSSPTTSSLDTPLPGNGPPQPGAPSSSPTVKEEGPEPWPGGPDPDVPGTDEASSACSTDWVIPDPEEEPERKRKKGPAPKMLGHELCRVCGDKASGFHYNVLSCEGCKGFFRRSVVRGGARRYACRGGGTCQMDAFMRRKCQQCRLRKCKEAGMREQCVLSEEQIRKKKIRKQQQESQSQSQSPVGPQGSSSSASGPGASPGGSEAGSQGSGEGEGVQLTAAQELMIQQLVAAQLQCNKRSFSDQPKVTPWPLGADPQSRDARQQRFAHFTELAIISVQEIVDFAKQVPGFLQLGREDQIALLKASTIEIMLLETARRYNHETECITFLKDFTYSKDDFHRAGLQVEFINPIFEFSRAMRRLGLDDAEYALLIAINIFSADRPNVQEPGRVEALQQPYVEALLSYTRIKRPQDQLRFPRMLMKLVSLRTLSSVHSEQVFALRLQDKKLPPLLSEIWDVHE

Efficacy [1]: 24% | Activity [2]: inactive | Activity [3]: inactive | Activity [4]: inactive | EC50 [5]: 0.0404 µM | solubility [6]: 0.015 µg/mL (≈ 0.032 µM) | Efficacy [7]: 14%
Compound: O=C1c2c(Cl)c(Cl)c(Cl)c(Cl)c2C(=O)N1c1ccccc1/C=C/c1cccs1
